Reference: patent US5061691A, “Enkephalin analogs” (Kabushiki Kaisha Vitamin Kenkyuso, priority 1987, dated 1991)
Where two headings read alike, the source gives them in different places. Peptide text beside a SMILES is read from it.

How the values were obtained:
mouse vas deferens (MVD) [1] = target: T1, mouse vas deferens (MVD) (Mus musculus, UniProt P32300); format: cell-based
mouse vas deferens (MVD) [2] = target: T1, mouse vas deferens (MVD); details: cited from earlier work
guinea pig ileum (GPI) = guinea pig ileum (GPI) (Cavia porcellus, UniProt P97266); details: value from Shimohigashi et al., Peptide Chemistry 1985 p. 51 (1986); cited from earlier work
μ and δ opiate receptors = details: Lutz et al., Eur. J. Pharmacol. 111, 257 (1985); cited from earlier work
[3] = i.c.v. or i.v. administration; cited from earlier work

T1 sequence (P32300 whole entry): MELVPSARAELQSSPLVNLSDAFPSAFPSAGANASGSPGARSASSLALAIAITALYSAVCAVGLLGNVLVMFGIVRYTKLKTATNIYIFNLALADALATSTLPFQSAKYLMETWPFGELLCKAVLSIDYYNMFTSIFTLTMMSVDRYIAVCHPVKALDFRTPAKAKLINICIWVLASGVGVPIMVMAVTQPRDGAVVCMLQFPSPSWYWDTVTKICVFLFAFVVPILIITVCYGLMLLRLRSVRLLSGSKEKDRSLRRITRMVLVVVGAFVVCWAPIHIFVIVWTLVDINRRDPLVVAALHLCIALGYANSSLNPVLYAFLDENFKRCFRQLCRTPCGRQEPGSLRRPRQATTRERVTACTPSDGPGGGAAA
Sequence of guinea pig ileum (GPI) (P97266 whole entry): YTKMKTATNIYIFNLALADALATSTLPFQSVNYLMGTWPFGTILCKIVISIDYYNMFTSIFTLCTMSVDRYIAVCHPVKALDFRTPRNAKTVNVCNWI

In the case of `NC(=O)[C@@H]1CCCN1C(=O)[C@H](Cc1ccccc1)NC(=O)[C@@H]1CCCN1C(=O)[C@@H](N)Cc1ccc(O)cc1` [Morphiceptin, H--Tyr--Pro--Phe--Pro--NH2] (H-YPFP-NH2), the “Activity ratio MVD/GPI” value (mouse vas deferens (MVD) [1]) is reported as 5.7.

For “(H--Tyr--D--Ala--Gly--NH--CH2 --)2 [DTRE2]”, the “opiate activity and selectivity in bioassays (GPI and MVD assays)” value (mouse vas deferens (MVD) [2]; GPI and MVD bioassays, Shimohigashi et al. (1986)) is given as “morphine-like activities and greater selectivity for μ than for δ”, the “Activity ratio MVD/GPI” value (mouse vas deferens (MVD) [2]; ratio of IC50, from Shimohigashi et al., Peptide Chemistry 1985 p. 51 (1986)) is given as 6.1 and the IC50 (mouse vas deferens (MVD) [2]; value from Shimohigashi et al., Peptide Chemistry 1985 p. 51 (1986)) is given as 2.7 µM. The IC50 (guinea pig ileum (GPI)) was 0.44 µM and the “selectivity for μ than for δ in receptor binding assay” value (μ and δ opiate receptors) was “about 400 fold”.

In the case of “β -Endorphin: consists of 31 amino acid residues and is a fragment of β -lipotropin (YGGFMTSEKSQTPLVTLFKNAIIKNAYKKGE; Beta-endorphin; UniProt P01189 237-267, looked up)”, the analgesic activity [3] is listed as “marked and long-lived analgesic activity”.
